Laboratory results as given in patent US12377104B1, “Methods for treating a fatty liver disease” (Madrigal Pharmaceuticals, Inc., priority 2024, dated 2025).
Values joined by “and” are separate entries in the source; they are usually repeats but may differ in a detail not shown here. Equal entries are not always repeated.

Tested on: adults with biopsy-confirmed NASH
Assay: MAESTRO-NASH: lipids, lipoproteins and lipid particles
Assay type: in vivo, human
Details: for Triglycerides, LS mean % CFB / Triglycerides, LS mean % CFB difference from PBO: baseline triglycerides >150 mg/dL; for ApoB, Least Squares Mean % CFB / ApoB, Least Squares Mean % CFB Difference from PBO / LDL-C, Least Squares Mean % CFB / LDL-C, Least Squares Mean % CFB Difference from PBO: baseline LDL-C >100 mg/dL; for Lp(a), LS mean % CFB / Lp(a), LS mean % CFB difference from PBO: baseline Lp(a) >10 nmol/L
Experimental: Within the study, we provided analyses based on an analysis of covariance (ANCOVA) model after having performed single imputation for LDL-C as described in the statistical analysis plan (SAP). The ANCOVA model estimated least-squares means using treatment and baseline LDL-C as covariate.
To this end, the Week 24 LDL-C assessment and assessments at any visit in which LDL-C is measured (Weeks 4, 12, 16, 20, 24, 28, 32, 36, 40, 44, 48, and 52) that has been impacted by kit shortage at the prior visit (unavailability of […] (IP) during the 4 weeks preceding the visit due to the COVID-19 pandemic as indicated on the electronic case report form (eCRF)), were considered missing and were imputed from an unaffected assessment at surrounding visits or using data from subjects unaffected by this intercurrent event as described in Section 11.2 of the SAP. In summary, single imputation utilizing adjacent and valid […] measurements were imputed.
For missing lipid data that are still missing after the single imputation approach described, those missing lipid data were imputed using the non-missing lipid values (including the singly imputed data) based on missing at random (MAR)-based (MI). When applying the MAR-based […], data were imputed separately by randomized treatment group and baseline stratification factors.

CC(C)c1cc(Oc2c(Cl)cc(-n3nc(C#N)c(=O)[nH]c3=O)cc2Cl)n[nH]c1=O [Resmetirom, 2-(3,5-dichloro-4-((5-isopropyl-6-oxo-1,6-dihydropyridazin-3-yl)oxy)phenyl)-3,5-dioxo-2,3,4,5-tetrahydro-1,2,4-triazine-6-carbonitrile]
Triglycerides, LS mean % CFB (80 mg, week 52): −22.5% | Triglycerides, LS mean % CFB difference from PBO (80 mg, week 52): −19.0% | Apolipoprotein B level, difference from placebo (100 mg, wk 24): −20.2 percentage points | Apolipoprotein B level, least-squares mean percent change from baseline (100 mg, wk 24): −19.8 ± 1.3% | LDL cholesterol level, difference from placebo (100 mg, wk 24): −16.4 percentage points | LDL cholesterol level, least-squares mean percent change from baseline (100 mg, wk 24): −16.3% and −16.3 ± 1.7% | Lipoprotein(a) level, difference from placebo (100 mg, wk 24): −35.1 percentage points | Triglyceride level, difference from placebo (100 mg, wk 24): −19.1 percentage points | Lipoprotein(a) level, least-squares mean percent change from baseline (100 mg, wk 24, baseline lipoprotein(a) >10 nmol per liter): −35.9 ± 4.0% | Triglyceride level, least-squares mean percent change from baseline (100 mg, wk 24, baseline triglyceride >150 mg per deciliter): −21.7 ± 4.3% | ApoB, LS mean % CFB (100 mg, Week 24): -19.8% | ApoB, LS mean % CFB difference from PBO (100 mg, Week 24): −20.2% | ApoCIII, Least Squares Mean % CFB (100 mg, Week 24): −14.1% | ApoCIII, Least Squares Mean % CFB Difference from PBO (100 mg, Week 24): −22.2% | HDL-C, Least Squares Mean % CFB (100 mg, Week 24): 2.9% | HDL-C, Least Squares Mean % CFB Difference from PBO (100 mg, Week 24): 1.2% | LDL-C, LS mean % CFB (100 mg, Week 24): −16.3% | LDL-C, LS mean % CFB difference from PBO (100 mg, Week 24): −16.4% | Non-HDL-C, Least Squares Mean % CFB (100 mg, Week 24): −17.7% | Non-HDL-C, Least Squares Mean % CFB Difference from PBO (100 mg, Week 24): −17.9% | ApoB, Least Squares Mean % CFB (100 mg, Week 24): −22.1% | ApoB, Least Squares Mean % CFB Difference from PBO (100 mg, Week 24): −18.4% | LDL-C, Least Squares Mean % CFB (100 mg, Week 24): −20.6% | LDL-C, Least Squares Mean % CFB Difference from PBO (100 mg, Week 24): −14.7% | ApoCIII, Least Squares Mean % CFB (100 mg, Week 52): −17.1% | ApoCIII, Least Squares Mean % CFB Difference from PBO (100 mg, Week 52): −26.9% | HDL particle size, Least Squares Mean % CFB (100 mg, Week 52): 0.40% | HDL particle size, Least Squares Mean % CFB Difference from PBO (100 mg, Week 52): 0.10% | HDL particles, Least Squares Mean % CFB (100 mg, Week 52): 2.3% | HDL particles, Least Squares Mean % CFB Difference from PBO (100 mg, Week 52): 0.69% | HDL-C, Least Squares Mean % CFB (100 mg, Week 52): 4.6% | HDL-C, Least Squares Mean % CFB Difference from PBO (100 mg, Week 52): 2.0% | LDL particle size, Least Squares Mean % CFB (100 mg, Week 52): −0.35% | LDL particle size, Least Squares Mean % CFB Difference from PBO (100 mg, Week 52): −0.39% | LDL particles, Least Squares Mean % CFB (100 mg, Week 52): −20.0% | LDL particles, Least Squares Mean % CFB Difference from PBO (100 mg, Week 52): −19.4% | Large HDL particles, Least Squares Mean % CFB (100 mg, Week 52): 4.5% | Large HDL particles, Least Squares Mean % CFB Difference from PBO (100 mg, Week 52): −7.7% | Large LDL particles, Least Squares Mean % CFB (100 mg, Week 52): 55.6% | Large LDL particles, Least Squares Mean % CFB Difference from PBO (100 mg, Week 52): −30.8% | Large VLDL and chylomicron particles, Least Squares Mean % CFB (100 mg, Week 52): −9.1% | Large VLDL and chylomicron particles, Least Squares Mean % CFB Difference from PBO (100 mg, Week 52): −20.2% | Medium HDL particles, Least Squares Mean % CFB (100 mg, Week 52): 130.2% | Medium HDL particles, Least Squares Mean % CFB Difference from PBO (100 mg, Week 52): 65.2% | Medium VLDL particles, Least Squares Mean % CFB (100 mg, Week 52): −27.4% | Medium VLDL particles, Least Squares Mean % CFB Difference from PBO (100 mg, Week 52): −143.2% | Non-HDL-C, Least Squares Mean % CFB (100 mg, Week 52): −22.1% | Non-HDL-C, Least Squares Mean % CFB Difference from PBO (100 mg, Week 52): −21.7% | Small LDL particles, Least Squares Mean % CFB (100 mg, Week 52): 6.6% | Small LDL particles, Least Squares Mean % CFB Difference from PBO (100 mg, Week 52): −15.0% | Small VLDL particles, Least Squares Mean % CFB (100 mg, Week 52): 26.3% | Small VLDL particles, Least Squares Mean % CFB Difference from PBO (100 mg, Week 52): −15.3% | VLDL and chylomicron particles, Least Squares Mean % CFB (100 mg, Week 52): −20.2% | VLDL and chylomicron particles, Least Squares Mean % CFB Difference from PBO (100 mg, Week 52): −28.4% | VLDL and chylomicron triglycerides, Least Squares Mean % CFB (100 mg, Week 52): −17.9% | VLDL and chylomicron triglycerides, Least Squares Mean % CFB Difference from PBO (100 mg, Week 52): −22.8% | VLDL particle size, Least Squares Mean % CFB (100 mg, Week 52): 3.4% | VLDL particle size, Least Squares Mean % CFB Difference from PBO (100 mg, Week 52): 1.4% | ApoB, Least Squares Mean % CFB (100 mg, Week 52): −26.6% | ApoB, Least Squares Mean % CFB Difference from PBO (100 mg, Week 52): −20.1% | LDL-C, Least Squares Mean % CFB (100 mg, Week 52): −27.1% | LDL-C, Least Squares Mean % CFB Difference from PBO (100 mg, Week 52): −17.5% | Lp(a), LS mean % CFB (100 mg, week 24): −35.9% | Lp(a), LS mean % CFB difference from PBO (100 mg, week 24): 35.1% | Triglycerides, LS mean % CFB (100 mg, week 24): −21.7% | Triglycerides, LS mean % CFB difference from PBO (100 mg, week 24): −19.1% | ApoB, LS mean % CFB (100 mg, week 52): -22.3% | ApoB, LS mean % CFB difference from PBO (100 mg, week 52): −22.9% | LDL-C, LS mean % CFB (100 mg, week 52): −19.5% | LDL-C, LS mean % CFB difference from PBO (100 mg, week 52): −19.0% | Lp(a), LS mean % CFB (100 mg, week 52): −37.5% | Lp(a), LS mean % CFB difference from PBO (100 mg, week 52): −32.4% | Triglycerides, LS mean % CFB (100 mg, week 52): −28.4% | Triglycerides, LS mean % CFB difference from PBO (100 mg, week 52): −24.9%
